# Assay results published in ChEMBL document CHEMBL2321853, “Novel acylethanolamide derivatives that modulate body weight through enhancement of hypothalamic pro-opiomelanocortin (POMC) and/or decreased neuropeptide Y (NPY)” (J Med Chem, 2013).
# Calls of active or inactive are those of the source. The rule behind the calls is not given here.
# Key:
# [1] = system: Mus musculus; test: Antiobesity activity in C57BL/6 mouse assessed as change in cholesterol level at 5 mg/kg, ip measured on day 36 (reference value: 86.58 mg/dL); assay type: functional; settings: route intraperitoneal
# [2] = system: Mus musculus; test: Antiobesity activity in C57BL/6 mouse assessed as change in AST level at 5 mg/kg, ip measured on day 36 (reference value: 146.7 IU/L); assay type: functional; settings: route intraperitoneal
# [3] = system: Mus musculus; test: Antiobesity activity in C57BL/6 mouse assessed as change in triglyceride level at 5 mg/kg, ip measured on day 36 (reference value: 0.92 mg/dL); assay type: functional; settings: route intraperitoneal
# [4] = system: Mus musculus; test: Antiobesity activity in C57BL/6 mouse assessed as change in glucose level in blood at 5 mg/kg, ip administered on day 1, 4, 5, 7, 17, 15, 19 measured on day 19 relative to control; assay type: functional; settings: route intraperitoneal
# [5] = system: Mus musculus; test: Antiobesity activity in C57BL/6 mouse assessed as change in glucose level in blood at 5 mg/kg, ip administered on day 1, 4, 5, 7, 17, 15, 19 measured on day 15 relative to control; assay type: functional; settings: route intraperitoneal
# [6] = system: Mus musculus; test: Antiobesity activity in C57BL/6 mouse assessed as change in glucose level in blood at 5 mg/kg, ip administered on day 1, 4, 5, 7, 17, 15, 19 measured on day 11 relative to control; assay type: functional; settings: route intraperitoneal
# [7] = system: Mus musculus; test: Antiobesity activity in C57BL/6 mouse assessed as change in glucose level in blood at 5 mg/kg, ip administered on day 1, 4, 5, 7, 17, 15, 19 measured on day 9 relative to control; assay type: functional; settings: route intraperitoneal
# [8] = system: Mus musculus; test: Antiobesity activity in C57BL/6 mouse assessed as change in glucose level in blood at 5 mg/kg, ip administered on day 1, 4, 5, 7, 17, 15, 19 measured on day 5 relative to control; assay type: functional; settings: route intraperitoneal
# [9] = system: Mus musculus; test: Antiobesity activity in C57BL/6 mouse assessed as change in glucose level in blood at 5 mg/kg, ip administered on day 1, 4, 5, 7, 17, 15, 19 measured on day 3 relative to control; assay type: functional; settings: route intraperitoneal
# [10] = system: Mus musculus; test: Antiobesity activity in C57BL/6 mouse assessed as weight loss at 5 mg/kg, ip administered on day 1, 4, 5, 7, 17, 15, 19 measured on day 19 relative to control; assay type: functional; settings: route intraperitoneal
# [11] = system: Mus musculus; test: Antiobesity activity in C57BL/6 mouse assessed as weight loss at 5 mg/kg, ip administered on day 1, 4, 5, 7, 17, 15, 19 measured on day 17 relative to control; assay type: functional; settings: route intraperitoneal
# [12] = system: Mus musculus; test: Antiobesity activity in C57BL/6 mouse assessed as weight loss at 5 mg/kg, ip administered on day 1, 4, 5, 7, 17, 15, 19 measured on day 15 relative to control; assay type: functional; settings: route intraperitoneal
# [13] = system: Mus musculus; test: Antiobesity activity in C57BL/6 mouse assessed as weight loss at 5 mg/kg, ip administered on day 1, 4, 5, 7, 17, 15, 19 measured on day 12 relative to control; assay type: functional; settings: route intraperitoneal
# [14] = system: Mus musculus; test: Antiobesity activity in C57BL/6 mouse assessed as weight loss at 5 mg/kg, ip administered on day 1, 4, 5, 7, 17, 15, 19 measured on day 11 relative to control; assay type: functional; settings: route intraperitoneal
# [15] = system: Mus musculus; test: Antiobesity activity in C57BL/6 mouse assessed as weight loss at 5 mg/kg, ip administered on day 1, 4, 5, 7, 17, 15, 19 measured on day 9 relative to control; assay type: functional; settings: route intraperitoneal
# [16] = system: Mus musculus; test: Antiobesity activity in C57BL/6 mouse assessed as weight loss at 5 mg/kg, ip administered on day 1, 4, 5, 7, 17, 15, 19 measured on day 8 relative to control; assay type: functional; settings: route intraperitoneal
# [17] = system: Mus musculus; test: Antiobesity activity in C57BL/6 mouse assessed as weight loss at 5 mg/kg, ip administered on day 1, 4, 5, 7, 17, 15, 19 measured on day 5 relative to control; assay type: functional; settings: route intraperitoneal
# [18] = system: Mus musculus; test: Antiobesity activity in C57BL/6 mouse assessed as weight loss at 5 mg/kg, ip administered on day 1, 4, 5, 7, 17, 15, 19 measured on day 3 relative to control; assay type: functional; settings: route intraperitoneal
# [19] = system: Mus musculus; test: Enhancement of cognitive function in Sabra mouse at 1 mg/kg, ip administered on day 8, 12 and 43 by eight-arm maze test; assay type: functional, organism-based; design: dose 1 mg/kg
# [20] = system: Mus musculus; test: Increase in ALT levels in Sabra mouse at 1 mg/kg, ip administered on day 8, 12 and 43 measured on day 74; assay type: ADME, organism-based; design: dose 1 mg/kg, route intraperitoneal; settings: in vivo
# [21] = system: Mus musculus; test: Effect on neurological score in Sabra mouse assessed as change in neurological score at 1 mg/kg, ip administered on day 8, 12 and 43 by NSS method; assay type: functional, organism-based; design: dose 1 mg/kg
# [22] = system: Mus musculus; test: Antiobesity activity in Sabra mouse assessed as change in body weight at 1 mg/kg, ip administered on day 8, 12 and 43 measured on day 71 relative to control; assay type: functional; settings: route intraperitoneal
# [23] = system: Mus musculus; test: Antiobesity activity in Sabra mouse assessed as change in body weight at 1 mg/kg, ip administered on day 8, 12 and 43 measured on day 54 relative to control; assay type: functional; settings: route intraperitoneal
# [24] = system: Mus musculus; test: Antiobesity activity in Sabra mouse assessed as change in body weight at 1 mg/kg, ip administered on day 8, 12 and 43 measured on day 50 relative to control; assay type: functional; settings: route intraperitoneal
# [25] = system: Mus musculus; test: Antiobesity activity in Sabra mouse assessed as change in body weight at 1 mg/kg, ip administered on day 8, 12 and 43 measured on day 43 relative to control; assay type: functional; settings: route intraperitoneal
# [26] = system: Mus musculus; test: Antiobesity activity in Sabra mouse assessed as change in body weight at 1 mg/kg, ip administered on day 8, 12 and 43 measured on day 36 relative to control; assay type: functional; settings: route intraperitoneal
# [27] = system: Mus musculus; test: Antiobesity activity in Sabra mouse assessed as change in body weight at 1 mg/kg, ip administered on day 8, 12 and 43 measured on day 33 relative to control; assay type: functional; settings: route intraperitoneal
# [28] = system: Mus musculus; test: Antiobesity activity in Sabra mouse assessed as change in body weight at 1 mg/kg, ip administered on day 8, 12 and 43 measured on day 29 relative to control; assay type: functional; settings: route intraperitoneal
# [29] = system: Mus musculus; test: Antiobesity activity in Sabra mouse assessed as change in body weight at 1 mg/kg, ip administered on day 8, 12 and 43 measured on day 15 relative to control; assay type: functional; settings: route intraperitoneal
# [30] = system: Mus musculus; test: Antiobesity activity in Sabra mouse assessed as change in body weight at 1 mg/kg, ip administered on day 8, 12 and 43 measured on day 12 relative to control; assay type: functional; settings: route intraperitoneal
# [31] = system: Mus musculus; test: Antiobesity activity in Sabra mouse assessed as change in body weight at 1 mg/kg, ip administered on day 8, 12 and 43 measured on day 8 relative to control; assay type: functional; settings: route intraperitoneal
# [32] = system: Mus musculus; test: Antiobesity activity in Sabra mouse assessed as change in body weight at 1 mg/kg, ip administered on day 8, 12 and 43 measured on day 5 relative to control; assay type: functional; settings: route intraperitoneal
# [33] = target: Transient receptor potential cation channel subfamily V member 1 (Mus musculus) (UniProt Q704Y3); test: Displacement of [3H]resiniferatoxin from TRPV1 in mouse cortical slices
# Chain of Transient receptor potential cation channel subfamily V member 1 (Mus musculus) (Q704Y3 whole entry): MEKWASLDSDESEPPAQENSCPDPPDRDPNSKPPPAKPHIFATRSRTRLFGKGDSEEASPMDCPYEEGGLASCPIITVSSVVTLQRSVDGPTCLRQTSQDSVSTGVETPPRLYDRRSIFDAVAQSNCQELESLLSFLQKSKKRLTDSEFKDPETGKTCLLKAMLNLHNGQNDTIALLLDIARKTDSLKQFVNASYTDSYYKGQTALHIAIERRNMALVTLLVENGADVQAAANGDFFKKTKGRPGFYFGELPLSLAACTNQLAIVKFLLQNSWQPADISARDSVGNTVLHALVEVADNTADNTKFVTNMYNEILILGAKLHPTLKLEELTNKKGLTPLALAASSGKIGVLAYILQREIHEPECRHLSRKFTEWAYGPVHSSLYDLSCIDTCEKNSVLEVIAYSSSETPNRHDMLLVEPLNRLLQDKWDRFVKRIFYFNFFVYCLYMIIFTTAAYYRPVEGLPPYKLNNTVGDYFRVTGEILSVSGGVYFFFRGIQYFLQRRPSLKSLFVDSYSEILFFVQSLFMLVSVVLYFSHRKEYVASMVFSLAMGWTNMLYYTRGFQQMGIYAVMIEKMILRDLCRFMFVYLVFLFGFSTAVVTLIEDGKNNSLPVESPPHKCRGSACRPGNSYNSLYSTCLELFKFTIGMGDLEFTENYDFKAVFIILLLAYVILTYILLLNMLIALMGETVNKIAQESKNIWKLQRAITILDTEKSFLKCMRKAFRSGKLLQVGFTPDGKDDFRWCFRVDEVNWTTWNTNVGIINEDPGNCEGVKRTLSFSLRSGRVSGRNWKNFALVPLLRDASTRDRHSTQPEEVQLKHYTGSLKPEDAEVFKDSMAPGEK
structure (smiles),measurement,setting,value
Cc1c(C(=O)NN2CCCCC2)nn(-c2ccc(Cl)cc2Cl)c1-c1ccc(Cl)cc1 [RIMONABANT],Activity,[1],94.16 mg/dL
same,Activity,[2],125.3 IU/L
same,Activity,[3],1.286 mg/dL
same,Activity,[4],19.8%
same,Activity,[5],-15.5%
same,Activity,[6],-20.7%
same,Activity,[7],-16.2%
same,Activity,[8],-11%
same,Activity,[9],0.86%
same,Activity,[10],-4.5%
same,Activity,[11],-1.9%
same,Activity,[12],-4.5%
same,Activity,[13],-4.5%
same,Activity,[14],-3.1%
same,Activity,[15],-4.6%
same,Activity,[16],-3.5%
same,Activity,[17],-3.2%
same,Activity,[18],-0.6%
same,Activity,[19],inactive
same,Activity,[20],Active
same,Activity,[21],inactive
same,Activity,[22],-0.9%
same,Activity,[23],-3.5%
same,Activity,[24],-2.4%
same,Activity,[25],-3.1%
same,Activity,[26],-2.2%
same,Activity,[27],0.8%
same,Activity,[28],1.5%
same,Activity,[29],1.6%
same,Activity,[30],0.9%
same,Activity,[31],3.2%
same,Activity,[32],0.3%
CCCCCCCCCCCCCCCCCC(=O)NCCO,Activity,[33],inactive
